Entries after “also recorded” stand apart in the source; their conditions may differ. Like-named read-outs stand apart in the source and are kept apart here.
Experiments:
[1] = molecular target: 5-HT2A receptor (Homo sapiens, UniProt P28223); settings: cited from earlier work
[2] = system: neurogenesis; settings: Ly et al. 2018; cited from earlier work
[3] = system: human U87 cells; settings: Zhang et al. 2020; cited from earlier work
[4] = system: PC12 cells treated with conditioned media from 1321N1 human astrocytoma cells; assay: Neurite outgrowth of PC12 cells treated with conditioned media from 1321N1 cells; type: cell-based, rat; settings: conditioned media from treated 1321N1 cells; FIG. 11, n=3
Source text: Although the assay aimed to explore potential synergistic effects of combining HE and psilocybin analogs, this was not clearly observed. […] 1321N1 human brain astrocytoma cells are known to excrete neurologically beneficial compounds when stimulated with neurotrophic compounds and fungal extracts including lion's mane (Mori et al., Biological and Pharmaceutical Bulletin, 9: 1727-1732 (2008)). While some fungi have well established mechanisms by which they benefit neurological health, little is known about the role of psilocybin analogs specifically. Generally following the protocol of Mori et al., 2008, 1321N1 human astrocytoma cells were treated with psilocybin analogs, and conditioned media was collected and applied to differentiated rat pheochromocytoma PC12 cells to determine the resulting impact on neurite outgrowth.

[5] = system: humans; settings: cited from earlier work
[6] = system: nerve growth factor (NGF) protein in human 1321N1 brain cells; assay: ELISA of NGF protein in 1321N1 cells; type: cell-based; settings: compared to a vehicle control; n=3; p<0.05
Source text: Accordingly, preliminary research has started to reveal the mechanisms by which psilocybin analogs may confer neurotrophic benefits that facilitate neurite outgrowth.
(§1) See Ly et al., “Psychedelics Promote Structural and Functional Neural Plasticity,” Cell Rep.

[7] = system: anti-inflammatory cytokine IL-10 in human 1321N1 brain cells; assay: ELISA of IL-10 in 1321N1 cells; type: cell-based
Source text: as §1

[8] = system: cortical neurons from rat embryo; assay: Neurite outgrowth and length in cultured neurons (Neurofit), tubulin immunostaining, High-Content Screening; settings: versus vehicle control, at the concentrations tested

Chain of 5-HT2A receptor (P28223 whole entry): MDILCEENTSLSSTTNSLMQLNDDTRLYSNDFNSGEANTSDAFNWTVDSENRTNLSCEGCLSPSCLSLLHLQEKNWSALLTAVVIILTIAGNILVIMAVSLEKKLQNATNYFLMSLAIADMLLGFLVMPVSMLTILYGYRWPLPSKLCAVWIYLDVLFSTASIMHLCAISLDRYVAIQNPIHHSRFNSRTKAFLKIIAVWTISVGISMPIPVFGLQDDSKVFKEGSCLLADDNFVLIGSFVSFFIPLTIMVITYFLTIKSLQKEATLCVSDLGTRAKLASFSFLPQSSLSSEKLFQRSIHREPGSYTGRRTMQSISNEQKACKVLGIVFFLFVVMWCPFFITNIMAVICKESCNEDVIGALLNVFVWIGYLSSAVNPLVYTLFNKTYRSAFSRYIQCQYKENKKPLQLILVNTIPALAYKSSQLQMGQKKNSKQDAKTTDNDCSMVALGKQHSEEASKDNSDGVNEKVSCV

COc1cc(C[C@@H](C)N)c(OC)cc1I [(R)-2,5-dimethoxy-4-iodoamphetamine]
5-HT2A receptor activation [1]: activate the 5-HT2A receptor

COc1cc(CC(C)N)c(OC)cc1I (centres unmarked) [DOI, 2,5-dimethoxy-4-iodoamphetamine]
neurogenesis [2]: promoted neurogenesis

CCN(CC)C(=O)[C@@H]1C=C2c3cccc4[nH]cc(c34)C[C@H]2N(C)C1 [LSD, N,N-diethyl-D-lysergamide]
neurogenesis [2]: promoted neurogenesis

CC(=O)O[C@@H]1C[C@@H]2C3=C(C(C)C)CC[C@]3(C)CC[C@@]2(C)[C@@H](O[C@@H]2OC[C@@H](O)[C@H](O)[C@H]2O)C=C1C=O [P]
inhibition of gliomas [3]: inhibitors of gliomas

CNCCc1c[nH]c2cccc(OP(=O)(O)O)c12 [baeocystin, 4-phosphoryloxy-N-methyltryptamine]
neurite outgrowth in PC12 cells [4]: induce neurite outgrowth | hallucinogenic effect ([5]; 4 mg consumed, Gartz 1991): gentle hallucinogenic experience | potency and psychotropic effects ([5]; Gartz 1997): roughly akin to psilocybin | hallucinogenic effect ([5]; oral consumption of 10 mg and 20 mg): did not produce any hallucinogenic effects

CN(C)CCc1c[nH]c2ccccc12 [dimethyltryptamine, N,N-dimethyltryptamine]
neurogenesis [2]: promoted neurogenesis

NCCc1c[nH]c2cccc(OP(=O)(O)O)c12 [norbaeocystin, 4-phosphoryloxy-tryptamine]
neurite outgrowth in PC12 cells [4]: induce neurite outgrowth | expression of NGF protein [6]: increased expression of NGF protein; also recorded: induces the expression; also recorded: induction of NGF protein

CNCCc1c[nH]c2cccc(O)c12 [norpsilocin, 4-hydroxy-N-methyl-tryptamine]
neurite outgrowth in PC12 cells [4]: induce neurite outgrowth | expression of the anti-inflammatory cytokine IL-10 [7]: induces the expression | neurite outgrowth, in words [8]: did not perform better than vehicle control

Reference: patent US11850254B2, “Tryptamine compositions for enhancing neurite outgrowth” (TURTLE BEAR HOLDINGS, LLC, priority 2019, dated 2023)
